Experimental data reported in patent publication US20260235581A1, “METHOD FOR THE SELECTION OF AN ECOBIOLOGICAL COMPOUND CAPABLE OF INCREASING THE SKIN TOLERANCE THRESHOLD” (NAOS INSTITUTE OF LIFE SCIENCE, priority 2023, published 2026).

Tests used:
TAFA4 = TAFA4 synthesis in normal human fibroblast culture supernatant, dot blot; type: cell-based; settings: for effect on the synthesis of TAFA4 (modulation of TAFA4 in the NHF supernatant): 72 hours of incubation, versus DMEM medium control set to 100%, valproic acid 0.025% and 0.05%, TGF-β 10 and 100 ng/ml, LPS 1 μg/ml; for doses with statistically significant induction of TAFA4 synthesis: NHF supernatant, 72 hours, Student test p<0.05, two doses tested
Procedure: Normal human fibroblasts (NHFs) have been used in this study (Lonza-Switzerland). The cells are seeded at 10,000 cells in 24-well plates in DMEM+1% Penicillin-streptomycin (P/S). After 72 hours of incubation at 37° C., 5% CO2, the supernatants and protein extracts (obtained from the cell layer) are recovered and stored at −80° C. Before assaying the TAFA4 protein, an evaluation of the toxicity of the compounds tested is performed using the MTT test. Only the concentrations which make it possible to obtain a viability greater than 80% are selected to be quantified by ELISA and dot blot. Dot blotting is an immunoenzymatic detection method for quantifying a protein in a sample after it has been deposited on a nitro-cellulose membrane in a well. Specific equipment (Biorad, France) is used with a nitrocellulose membrane. The device is subjected to a vacuum pressure which will make it possible to create the suctioning of the sample (supernatant or protein extract) and therefore, the binding of proteins to the nitrocellulose membrane. The equipment is placed at a height with respect to the vacuum pump, to respect the principle of gravity. The membrane is previously hydrated with 100 μl of TBS buffer (Tris base+NaCl diluted in water adjusted to pH 7.5) per well. This operation is repeated twice in order to optimise the hydration of the membrane for optimal binding of the proteins contained in the samples. The samples to be analysed (supernatants and protein extracts) and the different solutions of TAFA4 recombinant proteins at different concentrations of the TAFA4 standard range (0.78 to 100 ng/ml) are deposited in the plate (volume 100 μl/well used for the protein extracts and 500 μl/well-used for the supernatants) then the suction flow is activated. […] The presence of the TAFA4 protein on the membrane is conveyed by the formation of a grey to black spot depending on the intensity of the reaction and therefore on the quantity of protein. The membrane is read with the Fusion FX device (Vilber Lourmat) coupled with the VisionCapt software (Vilber Lourmat). The quantification of the TAFA4 protein in the samples tested is done with the VisionCapt software which makes it possible to measure the intensity of the various spots. The quantity of samples is then produced using the standard curve of the TAFA4 standard established with the recombinant protein The data have been collected from independent experiments performed in triplicate. Quantitative analyses are expressed in the form of mean±standard deviation. Statistical significance is determined by a Student test. […] The results are expressed as a percentage of TAFA4 expression by standardising the control to 100% (DMEM medium control). […]

[1] = tested on: pain/hypersensitivity felt locally in the skin; settings: mice, injection subcutaneously or at the level of the neurons present in the bone marrow; cited from earlier work
KO mice for TAFA4 [2] = settings: intradural injection; inflammatory pain agonist or partial lesion of the sciatic nerve; cited from earlier work
KO mice for TAFA4 [3] = settings: UVC irradiation, intradermal injection post-irradiation; cited from earlier work

With `CCCC(CCC)C(=O)O` [Valproic acid, reference compound] the “effect on the synthesis of TAFA4 (modulation of TAFA4 in the NHF supernatant)” value (TAFA4) was “induce the synthesis of TAFA4 in a dose-dependent manner” and the “doses with statistically significant induction of TAFA4 synthesis” value (TAFA4) was 1 out of 2 doses.
In the case of TGF-β: TGF-β protein, 100-21, PEPROTECH, the “effect on the synthesis of TAFA4 (modulation of TAFA4 in the NHF supernatant)” value (TAFA4) is reported as “induce the synthesis of TAFA4 in a dose-dependent manner” and the “doses with statistically significant induction of TAFA4 synthesis” value (TAFA4) is reported as 2 out of 2 doses.
For “human TAFA4 protein: TAFA Chemokine Like Family Member 4 protein, a neurokine; injected recombinant protein in literature mouse studies”, the “duration of the reduction of pain/hypersensitivity post-injection” value [1] is given as “up to 4 hours”, the “effect on pain/hypersensitivity felt locally in the skin” value [1] is given as “reduces the pain/hypersensitivity felt locally in the skin” and the “effect on increased hypersensitivity to pain of TAFA4 KO mice” value (KO mice for TAFA4 [2]) is given as “compensates for the condition of TAFA4 KO mice”. The “effect on 35-day post-irradiation inflammation resolution defect” value (KO mice for TAFA4 [3]) was “can be compensated”.
